Reference: patent publication US10738074B2, “Cyclic di-nucleotide compounds as STING agonists” (Merck Sharp & Dohme Corp., priority 2015, dated 2020)
Read-outs that look alike come from different tables or passages of the source.

Assays:
[1] = tested on: THP1 cells; test: IFN-β secretion in THP1 cell culture (5 h); format: cell-based, human; details: Homo sapiens, THP-1, 5 h
Protocol: The ability of compounds to stimulate the secretion of interferon-beta from THP1 cells was measured using a human IFN-β AlphaLISA kit (Perkin Elmer, Cat. No. AL265F). The basic protocol is as follows:
A Labcyte Echo 550 acoustic dispenser was used to transfer 120 nL of compound dissolved in DMSO into the wells of an empty, sterile 384-well microplate, (Corning, Cat. No. 3712). THP1 cells (American Type Culture Collection, Cat. No. TIB202) previously frozen in Recovery Medium (Life Technologies, Cat. No. 12648-010) were thawed and immediately diluted 10-fold into 37° C. assay medium (RPMI 1640+L-Glutamine & phenol red, Life Technologies, Cat. No. 11875-085; 0.5% heat inactivated fetal bovine serum, Sigma Aldrich, Cat. No. F4135; 1 mM Sodium Pyruvate, Life Technologies, Cat. No. 11360-070; lx non-essential amino acids; Life Technologies, Cat. No. 11140-050). The cell viability and count was ascertained using a Beckman Coulter V-Cell XR cell counter. The cells suspension was centrifuged at 200×g for 5 min at RT. Cells were resuspended to a density of 0.8×10^6/mL in 37° C. assay medium. Subsequent liquid transfers were performed using either a Matrix electronic multichannel pipette or an Agilent Bravo Automated Liquid Handling Platform.
The assay was started by dispensing 40 μL of the previously prepared cell suspension into the wells of the plate containing compounds. After 5 h incubation at 37° C., 5% CO2 in a humidified atmosphere, the plate of cells and compounds was centrifuged at 200×g for 5 min at RT. From each well, 5 μL of supernatant was transferred into corresponding wells of a white 384-well plate (Perkin Elmer, Cat. No. 6005620). To these supernatant-containing wells was added 10 μL of 5× Anti-Analyte Acceptor beads (50 μg/mL of AlphaLISA HiBlock Buffer) and incubated for 30 min at RT while shaking on an orbital plate shaker. To each well was added 10 μL of 5× Biotinylated Antibody Anti-analyte (5 nM in AlphaLISA HiBlock Buffer) and incubated on an orbital plate shaker for 60 min at RT or overnight at 4° C. To each well was added 25 μL of 2× SA-Donor beads (80 μg/mL in AlphaLISA HiBlock Buffer) and incubated for 30-45 min at RT in the dark while shaking on an orbital plate shaker. The plate was then read on a Perkin Elmer Envision (λex=680 nm, λem=[…]). The percent effect of the AlphaLISA signal at each compound concentration was calculated based on 30 uM cGAMP positive controls and 0.3% DMSO negative controls. The plot of percent effect versus the log of compound concentration was fit with a 4-parameter concentration response equation to calculate EC50 values. The test compounds were tested at concentrations 30000, 10000, 3333, 1111, 370.4, 123.4, 41.2, 13.7, 4.6, and 1.5 nM with 0.3% residual DMSO.
Compounds of the disclosure were evaluated for IFN-β secretion in THP1 cell culture as described above. The following table tabulates the biological data for these compounds as percent activation relative to 2′3′-cGAMP at the 30 μM concentration.

[2] = biological target: full-length HAQ STING (Homo sapiens (Human), UniProt Q86WV6, G230A/H232R/R293Q/R71H); test: 3H-cGAMP filtration binding assay (HAQ STING); details: competition with tritiated cGAMP, HAQ STING membrane
Chain of full-length HAQ STING (Q86WV6 other isoform, or with tags, fused parts or gaps, stated change not applied): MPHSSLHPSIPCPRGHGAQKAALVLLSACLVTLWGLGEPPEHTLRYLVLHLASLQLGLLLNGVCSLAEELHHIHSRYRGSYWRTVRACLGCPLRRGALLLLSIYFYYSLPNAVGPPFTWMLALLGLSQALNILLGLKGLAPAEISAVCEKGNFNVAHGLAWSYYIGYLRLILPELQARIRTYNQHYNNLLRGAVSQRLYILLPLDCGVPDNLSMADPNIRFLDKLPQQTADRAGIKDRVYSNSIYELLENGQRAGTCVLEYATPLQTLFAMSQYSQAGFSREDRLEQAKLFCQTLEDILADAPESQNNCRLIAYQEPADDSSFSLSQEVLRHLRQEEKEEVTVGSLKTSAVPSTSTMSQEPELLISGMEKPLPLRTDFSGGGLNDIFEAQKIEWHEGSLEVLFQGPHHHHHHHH
Excerpt: (§1) The ability of compounds to bind STING is quantified by the ability to compete with tritiated cGAMP ligand for human STING receptor membrane using a radioactive filter-binding assay. The binding assay employs STING receptor obtained from Hi-Five cell membranes overexpressing full-length HAQ STING prepared in-house and tritiated cGAMP ligand also purified in-house.
as §1, with “their” for “the”, “Trichoplusia ni” for “Hi-Five”, “membranes (Tni; Expression Systems, cat #94-002F, www.exrpressionsystems.com)” for “membranes”
The basic HAQ STING filtration assay protocol is as follows:
Compound and membrane then preincubated for 60 min at RT to allow compound binding to equilibrate. Following equilibration, 8 nM of [^3H] c-GAMP ligand was prepared by diluting into assay buffer, and 50 uL of this working stock was then manually added to each well of the assay plate. […] The filter plates were then dried at 55° C. for 30 min using a pressurized VWR oven before 30 uL of Ultima GoldF scintillate was added to each well. Tritium levels for each reaction well were then measured using a PerkinElmer TopCount plate reader.
After normalization to controls, the percent activity for each compound concentration was calculated by measuring the amount of remaining radioactivity. The plot of percent activity versus the log of compound concentration was fit with a 4-parameter dose response equation to calculate EC50 values.

[3] = IFN-β secretion, THP1 cells, 5 h, 30 μM, read-out: % Effect at 30 μM relative to 2′3′-cGAMP

[N-]=[N+]=N[C@H]1[C@H]2OP(O)(=S)OC[C@H]3O[C@@H](n4cnc5c(=O)[nH]c(N)nc54)[C@H](OP(O)(=S)OC[C@H]1O[C@H]2n1cnc2c(N)ncnc21)[C@@H]3F (single isomer, unassigned) [Example 18]
activation at 30 µM ([1]; read-out: % Effect at 30 μM relative to 2′3′-cGAMP, IFN-β secretion, THP1 cells, 5 h, 30 μM): 118%

Nc1nc2c(ncn2[C@@H]2O[C@@H]3COP(=O)(S)O[C@@H]4[C@H](O)[C@@H](COP(=O)(S)O[C@@H]2[C@@H]3O)O[C@H]4n2cnc3c(=O)[nH]c(N)nc32)c(=O)[nH]1 (single isomer, unassigned) [Example 25]
activation at 30 µM [1, 3]: 89%

Nc1nc2c(ncn2[C@@H]2O[C@@H]3COP(=O)(S)OC4C(O)[C@@H](COP(=O)(S)OC2[C@@H]3O)O[C@H]4n2cnc3c(N)ncnc32)c(=O)[nH]1 (stereo in doubt) [Example 15, 2-amino-9-[(1R,6R,8R,9R,14R,16R,17R,18R)-16-(6-amino-9H-purin-9-yl)-17,18-dihydroxy-3,11-dioxido-3,11-disulfanyl-2,4,7,10,12,15-hexaoxa-3,11-diphosphatricyclo[12.2.1.1^6,9]octadec-8-yl]-1,9-dihydro-6H-purin-6-one]
activation at 30 µM [1, 3]: 132%

Nc1nc2c(ncn2[C@@H]2O[C@@H]3COP(=O)(O)O[C@@H]4C[C@@H](COP(=O)(O)O[C@@H]2[C@@H]3O)O[C@H]4n2cnc3c(N)ncnc32)c(=O)[nH]1 [Example 1, 2-amino-9-[(1R,6R,8R,9R,14S,16R,18R)-16-(6-amino-9H-purin-9-yl)-3,11,18-trihydroxy-3,11-dioxido-2,4,7,10,12,15-hexaoxa-3,11-diphosphatricyclo[12.2.1.1^6,9]octadec-8-yl]-1,9-dihydro-6H-purin-6-one]
EC50 [2]: 19 nM | activation at 30 µM [1, 3]: 121%

Nc1nc2c(ncn2[C@@H]2O[C@@H]3COP(=O)(O)O[C@@H]4[C@H](O)[C@@H](COP(=O)(O)O[C@@H]2C3)O[C@H]4n2cnc3c(N)ncnc32)c(=O)[nH]1 [Example 2, 2-amino-9-[(1R,6S,8R,9R,14R,16R,17R)-16-(6-amino-9H-purin-9-yl)-3,11,17-trihydroxy-3,11-dioxido-2,4,7,10,12,15-hexaoxa-3,11-diphosphatricyclo[12.2.1.1^6,9]octadec-8-yl]-1,9-dihydro-6H-purin-6-one]
EC50 [2]: 18.2 nM | activation at 30 µM [1, 3]: 123%

Nc1nc2c(ncn2[C@@H]2O[C@@H]3COP(=O)(O)O[C@@H]4[C@H](O)[C@@H](COP(=O)(O)O[C@@H]2[C@@H]3F)O[C@H]4n2cnc3c(N)ncnc32)c(=O)[nH]1 [Example 3, 2-amino-9-[(1R,6R,8R,9S,14R,16R,17R,18R)-16-(6-amino-9H-purin-9-yl)-18-fluoro-3,11,17-trihydroxy-3,11-dioxido-2,4,7,10,12,15-hexaoxa-3,11-diphosphatricyclo[12.2.1.1^6,9]octadec-8-yl]-1,9-dihydro-6H-purin-6-one]
EC50 [2]: 3.6 nM | activation at 30 µM [1, 3]: 150%

Nc1nc2c(ncn2[C@@H]2O[C@@H]3COP(=O)(O)O[C@@H]4[C@H](F)[C@@H](COP(=O)(O)O[C@@H]2[C@@H]3O)O[C@H]4n2cnc3c(N)ncnc32)c(=O)[nH]1 [Example 4, 2-amino-9-[(1S,6R,8R,9R,14R,16R,17R,18R)-16-(6-amino-9H-purin-9-yl)-17-fluoro-3,11,18-trihydroxy-3,11-dioxido-2,4,7,10,12,15-hexaoxa-3,11-diphosphatricyclo[12.2.1.1^6,9]octadec-8-yl]-1,9-dihydro-6H-purin-6-one]
EC50 [2]: 1.8 nM | activation at 30 µM [1, 3]: 104%

[N-]=[N+]=N[C@H]1[C@H]2OP(=O)(O)OC[C@H]3O[C@@H](n4cnc5c(N)ncnc54)[C@H](OP(=O)(O)OC[C@H]1O[C@H]2n1cnc2c(=O)[nH]c(N)nc21)[C@@H]3O [Example 5, 2-amino-9-[(1R,6S,8R,9R,14R,16R,17R,18R)-16-(6-amino-9H-purin-9-yl)-18-azido-3,11,17-trihydroxy-3,11-dioxido-2,4,7,10,12,15-hexaoxa-3,11-diphosphatricyclo[12.2.1.1^6,9]octadec-8-yl]-1,9-dihydro-6H-purin-6-one]
EC50 [2]: < 1 nM | activation at 30 µM [1, 3]: 145%

C[C@H]1OP(=O)(O)O[C@@H]2[C@H](F)[C@@H](COP(=O)(O)O[C@@H]3[C@H](O)[C@@H]1O[C@H]3n1cnc3c(N)ncnc31)O[C@H]2n1cnc2c(=O)[nH]c(N)nc21 [Example 7, 2-amino-9-[(1R,6R,8R,9S,13R,14S,16R,17R,18R)-16-(6-amino-9H-purin-9-yl)-18-fluoro-3,11,17-trihydroxy-13-methyl-3,11-dioxido-2,4,7,10,12,15-hexaoxa-3,11-diphosphatricyclo[12.2.1.16,9]octadec-8-yl]-1,9-dihydro-6H-purin-6-one]
EC50 [2]: 45.2 nM | activation at 30 µM [1, 3]: 59%

Nc1nc2c(ncn2[C@@H]2O[C@@H]3COP(=O)(O)O[C@@H]4[C@H](F)[C@@H](COP(=O)(O)O[C@@H]2C3)O[C@H]4n2cnc3c(N)ncnc32)c(=O)[nH]1 [Example 10, 2-amino-9-[(1S,6S,8R,9R,14R,16R,17R)-16-(6-amino-9H-purin-9-yl)-17-fluoro-3,11-dihydroxy-3,11-dioxido-2,4,7,10,12,15-hexaoxa-3,11-diphosphatricyclo[12.2.1.1^6,9]octadec-8-yl]-1,9-dihydro-6H-purin-6-one]
activation at 30 µM [1, 3]: 87%

Nc1nc2c(ncn2[C@@H]2O[C@@H]3COP(=O)(S)O[C@@H]4[C@H](O)[C@@H](COP(=O)(S)O[C@@H]2[C@@H]3O)O[C@H]4n2cnc3c(N)ncnc32)c(=O)[nH]1 (stereo partly drawn) [Example 14, 2-amino-9-[(1R,6R,8R,9R,14R,16R,17R,18R)-16-(6-amino-9H-purin-9-yl)-17,18-dihydroxy-3,11-dioxido-3,11-disulfanyl-2,4,7,10,12,15-hexaoxa-3,11-diphosphatricyclo[12.2.1.1^6,9]octadec-8-yl]-1,9-dihydro-6H-purin-6-one]
activation at 30 µM [1, 3]: 150%

Nc1nc2c(ncn2[C@@H]2O[C@@H]3COP(=O)(O)O[C@@H]4[C@H](O)[C@@H](COP(=O)(O)O[C@@H]2[C@@H]3N)O[C@H]4n2cnc3c(N)ncnc32)c(=O)[nH]1 [Example 32, 2-amino-9-[(1R,6S,8R,9R,14R,16R,17R,18R)-18-amino-16-(6-amino-9H-purin-9-yl)-3,11,17-trihydroxy-3,11-dioxido-2,4,7,10,12,15-hexaoxa-3,11-diphosphatricyclo[12.2.1.1^6,9]octadec-8-yl]-1,9-dihydro-6H-purin-6-one]
EC50 [2]: 1.9 nM
